Twelve compounds from ChEMBL document CHEMBL2331260, “Discovery of thieno[3,2-d]pyrimidine-6-carboxamides as potent inhibitors of SIRT1, SIRT2, and SIRT3” (J Med Chem, 2013) can be followed below.

Data set [1] addresses T1, NAD-dependent protein deacetylase sirtuin-1 (Homo sapiens, UniProt Q96EB6).
T1 sequence (Q96EB6 whole entry): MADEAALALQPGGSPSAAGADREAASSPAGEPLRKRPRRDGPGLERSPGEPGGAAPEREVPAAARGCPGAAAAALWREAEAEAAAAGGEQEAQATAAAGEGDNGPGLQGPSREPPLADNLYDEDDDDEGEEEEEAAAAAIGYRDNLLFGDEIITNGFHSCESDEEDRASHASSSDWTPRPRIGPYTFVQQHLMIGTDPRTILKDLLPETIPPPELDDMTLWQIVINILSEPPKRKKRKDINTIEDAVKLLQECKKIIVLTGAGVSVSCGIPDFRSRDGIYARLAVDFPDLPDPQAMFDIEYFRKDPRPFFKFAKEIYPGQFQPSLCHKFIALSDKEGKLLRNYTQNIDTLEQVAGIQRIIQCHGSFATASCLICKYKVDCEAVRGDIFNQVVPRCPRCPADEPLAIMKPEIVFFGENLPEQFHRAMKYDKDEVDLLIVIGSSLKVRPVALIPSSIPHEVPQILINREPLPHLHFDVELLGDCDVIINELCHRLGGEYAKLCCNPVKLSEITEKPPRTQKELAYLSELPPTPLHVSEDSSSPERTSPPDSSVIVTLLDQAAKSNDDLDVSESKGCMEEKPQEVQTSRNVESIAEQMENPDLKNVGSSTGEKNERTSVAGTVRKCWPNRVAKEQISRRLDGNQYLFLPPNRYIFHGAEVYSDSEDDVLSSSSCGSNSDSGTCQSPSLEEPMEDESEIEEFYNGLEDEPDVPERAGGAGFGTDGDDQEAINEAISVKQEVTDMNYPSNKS
Nature of the data set: Inhibition of His-tagged SIRT1 (1 to 747) (unknown origin)-mediated deacetylation of Ac-RHKKAcW-NH2 substrate preincubated for 20 mins measured after 30 mins by mass spectrophotometric analysis.

Data set [2] deals with T2, NAD-dependent protein deacetylase sirtuin-2 (Homo sapiens, UniProt Q8IXJ6).
T2 sequence (Q8IXJ6 whole entry): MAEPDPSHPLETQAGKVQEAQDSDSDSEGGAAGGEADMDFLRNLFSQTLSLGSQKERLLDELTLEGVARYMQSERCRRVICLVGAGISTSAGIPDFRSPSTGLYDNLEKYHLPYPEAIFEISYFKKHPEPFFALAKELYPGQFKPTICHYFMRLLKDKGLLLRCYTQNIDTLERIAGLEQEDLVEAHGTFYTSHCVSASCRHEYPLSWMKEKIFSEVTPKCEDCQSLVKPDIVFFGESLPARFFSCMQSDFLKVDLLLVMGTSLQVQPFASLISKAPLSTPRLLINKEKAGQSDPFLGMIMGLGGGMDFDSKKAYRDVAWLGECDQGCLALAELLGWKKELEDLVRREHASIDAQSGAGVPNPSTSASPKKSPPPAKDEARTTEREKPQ
The data set is described as follows: Inhibition of His-tagged SIRT2 (1 to 389) (unknown origin)-mediated deacetylation of Ac-RHKKAcW-NH2 substrate incubated for 20 mins prior to substrate addition measured after 30 mins by mass spectrophotometric analysis.

Another data set deals with Cytochrome P450 3A4 (Homo sapiens, UniProt P08684). Nature of the data set: Inhibition of CYP3A4 (unknown origin). In kind it is ADME.
Sequence of Cytochrome P450 3A4 (P08684 whole entry): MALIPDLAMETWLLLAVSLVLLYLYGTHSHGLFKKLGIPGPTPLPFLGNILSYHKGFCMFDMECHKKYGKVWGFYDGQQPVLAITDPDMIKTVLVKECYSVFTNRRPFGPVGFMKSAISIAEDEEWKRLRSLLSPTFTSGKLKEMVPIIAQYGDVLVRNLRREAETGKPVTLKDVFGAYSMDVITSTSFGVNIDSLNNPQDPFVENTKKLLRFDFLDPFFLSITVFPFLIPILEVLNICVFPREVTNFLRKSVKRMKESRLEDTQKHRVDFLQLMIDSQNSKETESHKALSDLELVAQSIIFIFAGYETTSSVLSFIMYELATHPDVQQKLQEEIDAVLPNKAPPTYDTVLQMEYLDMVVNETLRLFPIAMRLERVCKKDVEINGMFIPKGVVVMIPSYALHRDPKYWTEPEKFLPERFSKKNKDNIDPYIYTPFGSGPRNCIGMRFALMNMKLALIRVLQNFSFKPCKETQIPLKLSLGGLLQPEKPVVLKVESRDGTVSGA
In data set [3] the target is Voltage-gated inwardly rectifying potassium channel KCNH2 (Homo sapiens, UniProt Q12809). Nature of the data set: Inhibition of human ERG by dofetilide binding assay.
Sequence of Voltage-gated inwardly rectifying potassium channel KCNH2 (Q12809 whole entry): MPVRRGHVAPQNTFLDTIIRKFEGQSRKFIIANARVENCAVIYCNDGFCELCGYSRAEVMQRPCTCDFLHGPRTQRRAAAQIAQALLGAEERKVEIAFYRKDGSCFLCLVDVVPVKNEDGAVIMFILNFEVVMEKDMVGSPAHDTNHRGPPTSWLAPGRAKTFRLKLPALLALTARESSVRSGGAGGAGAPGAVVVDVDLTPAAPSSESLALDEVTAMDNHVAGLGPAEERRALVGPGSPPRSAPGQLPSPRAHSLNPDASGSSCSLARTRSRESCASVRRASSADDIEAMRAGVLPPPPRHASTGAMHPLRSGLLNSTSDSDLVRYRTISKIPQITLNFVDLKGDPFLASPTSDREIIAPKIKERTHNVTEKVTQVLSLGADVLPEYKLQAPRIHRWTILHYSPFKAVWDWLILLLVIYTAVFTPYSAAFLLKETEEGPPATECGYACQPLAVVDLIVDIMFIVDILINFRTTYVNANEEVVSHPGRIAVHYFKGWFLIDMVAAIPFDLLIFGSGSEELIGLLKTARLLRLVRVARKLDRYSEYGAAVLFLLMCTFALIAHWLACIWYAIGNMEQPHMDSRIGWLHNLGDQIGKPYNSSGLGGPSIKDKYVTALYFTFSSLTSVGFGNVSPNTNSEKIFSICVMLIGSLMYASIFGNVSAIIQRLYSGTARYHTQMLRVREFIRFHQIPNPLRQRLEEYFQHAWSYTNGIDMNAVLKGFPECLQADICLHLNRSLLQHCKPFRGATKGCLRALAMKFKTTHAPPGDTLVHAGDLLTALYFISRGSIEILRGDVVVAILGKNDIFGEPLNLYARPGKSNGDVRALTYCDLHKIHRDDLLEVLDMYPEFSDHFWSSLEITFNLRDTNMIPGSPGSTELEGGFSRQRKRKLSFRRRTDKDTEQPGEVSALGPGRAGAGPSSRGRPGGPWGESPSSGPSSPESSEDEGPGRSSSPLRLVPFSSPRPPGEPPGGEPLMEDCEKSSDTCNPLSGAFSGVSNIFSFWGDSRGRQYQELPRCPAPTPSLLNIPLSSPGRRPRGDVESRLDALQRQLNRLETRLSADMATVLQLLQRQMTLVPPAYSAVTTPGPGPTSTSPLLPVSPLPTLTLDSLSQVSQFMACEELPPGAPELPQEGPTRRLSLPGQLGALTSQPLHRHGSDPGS
The target in a further data set is Cytochrome P450 2D6 (Homo sapiens, UniProt P10635). The data set is described as follows: Inhibition of CYP2D6 (unknown origin). In kind it is ADME.
Sequence of Cytochrome P450 2D6 (P10635 whole entry): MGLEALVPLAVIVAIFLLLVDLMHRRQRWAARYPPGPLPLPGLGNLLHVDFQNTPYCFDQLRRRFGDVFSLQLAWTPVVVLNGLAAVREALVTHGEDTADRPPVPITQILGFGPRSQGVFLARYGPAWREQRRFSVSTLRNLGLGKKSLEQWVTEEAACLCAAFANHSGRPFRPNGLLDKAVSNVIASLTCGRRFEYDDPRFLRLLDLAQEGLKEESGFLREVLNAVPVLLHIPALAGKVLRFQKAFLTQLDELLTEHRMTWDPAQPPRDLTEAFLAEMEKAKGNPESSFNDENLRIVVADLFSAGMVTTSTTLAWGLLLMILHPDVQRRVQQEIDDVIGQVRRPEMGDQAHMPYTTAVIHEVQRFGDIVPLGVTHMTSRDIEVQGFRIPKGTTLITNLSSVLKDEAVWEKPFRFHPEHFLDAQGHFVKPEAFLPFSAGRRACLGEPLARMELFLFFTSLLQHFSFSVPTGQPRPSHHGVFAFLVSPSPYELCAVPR
A short description of data set [4]: Intrinsic clearance in mouse liver microsomes measured per mg of protein. Type of data set: ADME, Microsome. The settings on record: read-out: CLH. For orientation: Liver microsomes are vesicles of endoplasmic reticulum, rich in cytochrome P450 enzymes.
The next data set has as its target T3, Cytochrome P450 1A2 (Homo sapiens, UniProt P05177).
T3 sequence (P05177 whole entry): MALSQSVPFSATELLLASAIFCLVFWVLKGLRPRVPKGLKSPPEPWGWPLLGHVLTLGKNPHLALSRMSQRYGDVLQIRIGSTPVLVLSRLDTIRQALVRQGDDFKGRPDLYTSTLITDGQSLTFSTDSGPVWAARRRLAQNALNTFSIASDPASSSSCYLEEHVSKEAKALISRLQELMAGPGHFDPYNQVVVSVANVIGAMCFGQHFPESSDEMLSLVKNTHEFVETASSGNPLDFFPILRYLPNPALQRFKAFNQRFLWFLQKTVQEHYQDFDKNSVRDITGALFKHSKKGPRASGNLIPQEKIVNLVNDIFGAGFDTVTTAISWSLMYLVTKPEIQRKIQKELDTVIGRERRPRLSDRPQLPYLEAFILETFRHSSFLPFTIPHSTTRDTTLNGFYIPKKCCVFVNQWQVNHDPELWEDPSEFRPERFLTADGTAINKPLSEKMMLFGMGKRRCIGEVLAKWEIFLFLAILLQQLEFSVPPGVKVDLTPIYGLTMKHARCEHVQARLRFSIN
The data set is described as follows: Inhibition of CYP1A2 (unknown origin). In kind it is ADME.

Data set [5] is described as follows: Intrinsic clearance in human liver microsomes measured per mg of protein. Type of data set: ADME, Microsome. The settings on record: read-out: CLH.
The nature of data set [6]: Kinetic solubility in PBS at pH 7.4 by chemiluminescent nitrogen detection assay.
A further data set concerns the target Cytochrome P450 2C19 (Homo sapiens, UniProt P33261). Nature of the data set: Inhibition of CYP2C19 (unknown origin). Type of data set: ADME.
The target in data set [7] is T4, NAD-dependent protein deacetylase sirtuin-3, mitochondrial (Homo sapiens, UniProt Q9NTG7).
T4 sequence (Q9NTG7 whole entry): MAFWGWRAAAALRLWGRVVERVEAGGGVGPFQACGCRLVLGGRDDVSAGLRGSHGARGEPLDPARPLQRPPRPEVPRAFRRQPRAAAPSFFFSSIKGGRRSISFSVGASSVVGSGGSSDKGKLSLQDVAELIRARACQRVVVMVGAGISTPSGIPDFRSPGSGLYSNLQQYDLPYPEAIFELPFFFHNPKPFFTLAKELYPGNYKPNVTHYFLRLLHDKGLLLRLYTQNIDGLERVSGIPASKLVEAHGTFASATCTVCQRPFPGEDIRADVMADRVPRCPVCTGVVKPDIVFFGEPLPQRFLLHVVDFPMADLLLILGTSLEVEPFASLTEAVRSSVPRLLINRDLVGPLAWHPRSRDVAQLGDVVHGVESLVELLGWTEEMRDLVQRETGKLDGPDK
Nature of the data set: Inhibition of human His-tagged SIRT3 (102 to 399) expressed in Escherichia coli BL21(DE3) assessed as inhibition of deacetylation of Ac-RHKKAcW-NH2 substrate preincubated for 20 mins measured after 30 mins by mass spectrophotometric analysis.

In data set [8] the target is T4, NAD-dependent protein deacetylase sirtuin-3, mitochondrial. Nature of the data set: Inhibition of His-tagged SIRT3 (unknown origin) using KI179 as substrate after 1 hr by spectrophotometric analysis.
The target of data set [9] is T1, NAD-dependent protein deacetylase sirtuin-1. Nature of the data set: Inhibition of GST-tagged SIRT1 (unknown origin) using KI177 as substrate after 1 hr by spectrophotometric analysis.

Converted amounts (≈) assume the structure as drawn.

Sequence of Cytochrome P450 2C19 (P33261 whole entry): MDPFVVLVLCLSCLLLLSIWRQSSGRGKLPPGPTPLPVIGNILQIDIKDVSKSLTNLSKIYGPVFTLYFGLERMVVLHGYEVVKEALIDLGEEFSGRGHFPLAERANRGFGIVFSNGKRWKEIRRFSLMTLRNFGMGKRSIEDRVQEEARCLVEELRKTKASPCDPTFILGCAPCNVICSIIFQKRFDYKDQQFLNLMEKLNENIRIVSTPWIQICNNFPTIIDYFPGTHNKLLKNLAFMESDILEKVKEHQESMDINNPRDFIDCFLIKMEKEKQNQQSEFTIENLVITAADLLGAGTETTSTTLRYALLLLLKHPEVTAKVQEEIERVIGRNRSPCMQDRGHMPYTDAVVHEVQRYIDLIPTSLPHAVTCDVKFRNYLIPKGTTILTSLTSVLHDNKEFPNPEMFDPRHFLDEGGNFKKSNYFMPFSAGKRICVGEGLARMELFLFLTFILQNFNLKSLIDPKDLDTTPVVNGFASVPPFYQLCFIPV

As usually defined, the IC50 is the concentration that gives 50% inhibition. For `NC(=O)c1cc2ncnc(N3CCC(CCNC(=O)c4cccs4)CC3)c2s1`, the IC50 in data set [1] is 5.8 nM; in data set [2] it was 6.5 nM.
In the case of `CS(=O)(=O)NCCC1CCN(c2ncnc3cc(C(N)=O)sc23)CC1`, in [2], the IC50 was 1.1 nM.
One may read the kinetic solubility as the concentration staying in solution when a stock, usually in DMSO, is diluted into the medium. Take `CC(C)(C)C(=O)NCCC1CCN(c2ncnc3cc(C(N)=O)sc23)CC1`: the IC50 (at Cytochrome P450 3A4; in data set [3]; at Cytochrome P450 2D6; against Cytochrome P450 1A2; at Cytochrome P450 2C19) was above 50000 nM in each case. Also, the microsomal CLint in data set [4] was 12.7 µL/min/mg; in [5], 15.8 µL/min/mg. In [6], the solubility (kinetic) was determined as 297 µM (≈ 116 µg/mL).
Compound `CC(C)(C)OC(=O)NCCC1CCN(c2ncnc3cc(C(N)=O)sc23)CC1` yielded an IC50 in data set [2] of 5.4 nM.
For `CC(C)(C)OC(=O)c1ccc(C(=O)NCCC2CCN(c3ncnc4cc(C(N)=O)sc34)CC2)s1`, the figures for the IC50 in data set [1] and in [2] were 6.7 nM and 1.8 nM, respectively.
Take `CCNC(=O)c1cccc(C(=O)NCCC2CCN(c3ncnc4cc(C(N)=O)sc34)CC2)c1`: the IC50 in data set [7] was 4.9 nM; in [1], 5.3 nM; in data set [2], 1.3 nM. In data set [6], this compound returned a kinetic solubility of 19 µM (≈ 9.13 µg/mL).
In [6], `CCNC(=O)c1ccc(C(=O)NCCC2CCN(c3ncnc4cc(C(N)=O)sc34)CC2)s1` registered a solubility (kinetic) of 9 µM (≈ 4.38 µg/mL).
The compound `CCNC(=O)c1cccc(C(=O)NCCN2CCN(c3ncnc4cc(C(N)=O)sc34)CC2)c1` displayed a kinetic solubility in data set [6] of 220 µM (≈ 106 µg/mL).
Regarding `CCCCC[C@H]1CC(=O)c2cc(Cl)cc(Br)c2O1`, the IC50 in [8] and in data set [9] was above 200000 nM each time.
On to `CC(C)(C)C(=O)NCCC1CCN(c2ncnc3cc(C(=O)O)sc23)CC1`, for which the IC50 in [1] and in data set [2] was above 50000 nM throughout.
As to `NC(=O)c1cc2ncnc(N3CCC(CCNC(=O)c4ccc(C(=O)O)s4)CC3)c2s1`, the IC50 in [2] was 4.4 nM.
In turn, `CCNC(=O)c1ccc(C(=O)NCCN2CCN(c3ncnc4cc(C(N)=O)sc34)CC2)s1` came in with an IC50 in data set [2] of 4.8 nM. In [6], this compound returned a kinetic solubility of 65 µM (≈ 31.7 µg/mL).
